Reference: PubChem BioAssay (NCI)
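The compound was tested at five concentrations on cells cultured in 96-well plates, with a 48-hour exposure period. The concentration for full growth arrest is given as TGI.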

Assays:
Experiment in all cases: NCI tumour cell line growth inhibition, 48 h
OVCAR-5 ovarian = test system: OVCAR-5 ovarian
COLO 205 colon = test system: COLO 205 colon
SF-268 CNS = test system: SF-268 CNS
RXF 393 renal = test system: RXF 393 renal
HCT-15 colon = test system: HCT-15 colon
CCRF-CEM leukemia = test system: CCRF-CEM leukemia
A549 NSCLC = test system: A549 NSCLC
K-562 leukemia = test system: K-562 leukemia
OVCAR-3 ovarian = test system: OVCAR-3 ovarian
SF-539 CNS = test system: SF-539 CNS
A498 renal = test system: A498 renal
IGROV1 ovarian = test system: IGROV1 ovarian
SNB-75 CNS = test system: SNB-75 CNS
NCI-H460 lung = test system: NCI-H460 lung
KM12 colon = test system: KM12 colon
SR leukemia = test system: SR leukemia
T-47D breast = test system: T-47D breast
HS 578T breast = test system: HS 578T breast
MDA-MB-231 breast = test system: MDA-MB-231 breast
BT-549 breast = test system: BT-549 breast

Row | SMILES | TGI (OVCAR-5 ovarian) | TGI (COLO 205 colon) | TGI (SF-268 CNS) | TGI (RXF 393 renal) | TGI (HCT-15 colon) | TGI (CCRF-CEM leukemia) | TGI (A549 NSCLC) | TGI (K-562 leukemia) | TGI (OVCAR-3 ovarian) | TGI (SF-539 CNS) | TGI (A498 renal) | TGI (IGROV1 ovarian) | TGI (SNB-75 CNS) | TGI (NCI-H460 lung) | TGI (KM12 colon) | TGI (SR leukemia) | TGI (T-47D breast) | TGI (HS 578T breast) | TGI (MDA-MB-231 breast) | TGI (BT-549 breast)
1 | CC(C)NC1CCCCC2c3cc(F)ccc3[C@]12O (stereo partly drawn) | > 100 µM | > 100 µM | > 100 µM | > 100 µM | > 100 µM | > 100 µM | > 100 µM | > 100 µM | > 100 µM | > 100 µM | > 100 µM | > 100 µM | > 100 µM | > 100 µM | > 100 µM |  |  |  |  | 
2 | Nc1nc(N)c2c(CCc3ccc(C(=O)N[C@@H](CCC(=O)O)C(=O)O)cc3)ccnc2n1 | > 100 µM | > 100 µM | > 100 µM | > 100 µM | > 100 µM | > 100 µM | > 100 µM | > 100 µM | > 100 µM | > 100 µM | > 100 µM | > 100 µM | > 100 µM | > 100 µM | > 100 µM | > 100 µM | > 100 µM | > 100 µM | > 100 µM | 
3 | COc1c(C(=O)/C(=N/Nc2cccc(Cl)c2)C(C)=O)c(O)c(OC)c2occc12 | > 100 µM | > 100 µM | > 100 µM | > 100 µM | > 100 µM | > 100 µM | > 100 µM | > 100 µM | > 100 µM | > 100 µM |  | > 100 µM | > 100 µM | > 100 µM | > 100 µM | > 100 µM | 88.9 µM | > 100 µM | > 100 µM | 
4 | O=C1OCCC12CN(Cc1ccccc1)N=N2 (stereo not drawn) | > 100 µM | > 100 µM | > 100 µM | > 100 µM | > 100 µM |  | > 100 µM | > 100 µM | > 100 µM | > 100 µM | > 100 µM |  |  | > 100 µM | > 100 µM | 74.6 µM | > 100 µM |  | > 100 µM | 
5 | O=C(CC(C(=O)c1cccs1)c1ccsc1)c1ccc(Cl)cc1 (stereo not drawn) | > 100 µM | > 100 µM | > 100 µM |  | > 100 µM | > 100 µM | > 100 µM | > 100 µM |  | > 100 µM | > 100 µM | > 100 µM | > 100 µM | > 100 µM | > 100 µM | > 100 µM | > 100 µM | > 100 µM | > 100 µM | 
6 | COc1cc(C(=O)O)cc2c1[nH]c1ccccc12 | > 25 µM | > 25 µM | > 25 µM |  | > 25 µM | > 25 µM | > 25 µM | > 25 µM | > 25 µM | > 25 µM |  | > 25 µM |  | > 25 µM | > 25 µM | > 25 µM |  |  |  | 
7 | CC[C@]1(Cc2ccc(OC)c(OC)c2)C=[N+]([O-])O[C@H](OC2CCCCC2c2ccccc2)[C@@H]1OC(C)=O (stereo partly drawn) | > 100 µM | 40.5 µM |  | 94.1 µM | > 100 µM | 68.3 µM | > 100 µM | > 100 µM | > 100 µM |  | > 100 µM | > 100 µM | > 100 µM | > 100 µM | > 100 µM | 91.1 µM | > 100 µM |  | > 100 µM | > 100 µM
8 | CC(=O)OC1COC(n2c(O)c(N=Nc3ccc([N+](=O)[O-])cc3)c3cc(Br)c([N+](=O)[O-])cc32)C(OC(C)=O)C1OC(C)=O (stereo not drawn) | > 100 µM | > 100 µM | > 100 µM | 89.8 µM | > 100 µM | > 100 µM | > 100 µM | > 100 µM | > 100 µM | > 100 µM |  | 70.3 µM |  | > 100 µM | > 100 µM | > 100 µM |  |  |  | 
9 | CCN1C(=O)/C(=C\c2coc3ccccc3c2=O)SC1=S | > 100 µM | > 100 µM | > 100 µM | > 100 µM | > 100 µM | > 100 µM | > 100 µM | > 100 µM | > 100 µM | 90.1 µM | > 100 µM | > 100 µM | > 100 µM | > 100 µM | > 100 µM | > 100 µM |  |  |  | 
10 | Cc1ccc(N/N=C/C2=CC(C)(C)C(C#N)(C#N)C(O)=C2C#N)cc1 | > 100 µM | > 100 µM | > 100 µM | 85.2 µM |  | > 100 µM | > 100 µM | > 100 µM | > 100 µM | > 100 µM |  | > 100 µM | > 100 µM | > 100 µM | > 100 µM | 91.2 µM | > 100 µM | > 100 µM | > 100 µM | 
11 | COc1cc2c(NCCN(C)C)nc3c4cc5c(cc4ccc3c2cc1OC)OCO5 | 6.71 µM | 5.82 µM | 8.98 µM | 7.3 µM | 6.56 µM | 6.44 µM | 6.67 µM | 7.49 µM |  | 7.73 µM | 5.86 µM | 5.82 µM | 5.39 µM | 5.38 µM | 8.07 µM |  | 11.5 µM | 12.4 µM | 9.05 µM | 
12 | OC1C2CCC3C2CC(C(O)(c2ccccc2)c2ccccc2)C13 (stereo not drawn) | > 100 µM | 37.2 µM | > 100 µM | 96.6 µM | > 100 µM | 95.1 µM | > 100 µM | > 100 µM | 87.3 µM | > 100 µM | > 100 µM | > 100 µM | 43.9 µM | > 100 µM | > 100 µM | 69.7 µM | > 100 µM | > 100 µM | > 100 µM | 
13 | CC(/C=C/c1ccccc1)=N\N=C(C)\C=C\c1ccccc1 | > 100 µM |  | > 100 µM |  | > 100 µM | > 100 µM | > 100 µM | > 100 µM | > 100 µM |  | > 100 µM | > 100 µM | > 100 µM | > 100 µM | > 100 µM | > 100 µM |  |  |  | 
14 | O=C1CSC(c2c[nH]c3ccccc23)N1c1cccc([N+](=O)[O-])c1 (stereo not drawn) | > 100 µM | > 100 µM | > 100 µM | > 100 µM | > 100 µM | > 100 µM | > 100 µM | > 100 µM | > 100 µM | > 100 µM |  | > 100 µM | > 100 µM | > 100 µM | > 100 µM | > 100 µM | > 100 µM |  | > 100 µM | > 100 µM
